Values after ≈ are worked out from the molar mass of the structure shown.
Legend:
[1] = test system: α-glucosidase from Saccharomyces sp.; assay: α-glucosidase inhibitory activity assay (pNPG substrate, absorbance 405 nm); type: biochemical
Source text: ^1H- and ^13C-NMR spectra and correlation NMR spectra such as COSY, HMBC, HMQC, and DEPT were obtained from a Bruker Avance DPX 400 (or 600) spectrometer (Berlin, Germany). These were obtained at operating frequencies of 400 MHz (^1H) and 100 (or 150) MHz (^13C) with CD3OD, (CD3)2SO, (CD3)2CO, or D2O and TMS was used as an internal standard; chemical shifts were reported in δ values. The α-glucosidase from Saccharomyces sp. (SSG) was purchased from Wako Pure Chemical Industries Ltd (Tokyo, Japan). […] All other chemicals and reagents used were of analytical grade.
The α-glucosidase inhibitory activity of the extracts and fractions was determined using a modified procedure reported method with a slight modification. The α-glucosidase activity was measured using the substrate p-nitrophenyl-α-D-glucopyranoside (pNPG), which is hydrolyzed by α-glucosidase to release the product p-nitrophenol, a colorant that can be monitored at 405 nm. The initial concentration of the enzyme solution was 0.62 unit/mL in 0.1 M phosphate buffer (pH 6.9) and the initial concentration of the substrate solution was 2 mM in the same phosphate buffer. The enzyme solution was mixed with water and the samples or controls in a clear 96-well microplate (flat bottom) and the reaction was initiated by addition of the substrate to the solution. The plates were incubated at 37 °C for 5 min and the reaction was terminated by the addition of 0.1 M Na2CO3. […] Background absorbance was determined using a non-enzyme control microplate containing the buffer and was subtracted from the absorbance of the samples and controls.

[2] = molecular target: T1, protein tyrosine phosphatase 1β (PTP1β) (Homo sapiens, UniProt P18031); assay: PTP1β inhibitory activity assay (colorimetric kit, IR5 phosphopeptide substrate); type: biochemical; conditions: for inhibition at 10 µg/mL: 10 μg/mL; for inhibition at 10 µg/mL / IC50: - is no activity; for IC50: isolated compounds
T1 sequence (P18031 1-322 limits assumed): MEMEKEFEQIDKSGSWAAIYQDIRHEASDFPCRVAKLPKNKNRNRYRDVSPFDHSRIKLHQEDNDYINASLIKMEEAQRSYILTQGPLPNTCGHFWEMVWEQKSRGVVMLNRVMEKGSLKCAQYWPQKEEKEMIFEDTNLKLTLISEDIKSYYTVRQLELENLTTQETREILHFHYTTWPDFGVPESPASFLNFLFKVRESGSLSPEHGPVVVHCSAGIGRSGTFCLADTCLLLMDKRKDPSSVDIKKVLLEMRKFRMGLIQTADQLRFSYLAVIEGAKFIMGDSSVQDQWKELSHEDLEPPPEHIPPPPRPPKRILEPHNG
Procedure: PTP1β tyrosine phosphatase drug discovery kit is a colorimetric, non-radioactive assay designed to measure the phosphatase activity of purified PTP1β. […] Following incubation at 37 °C for 30 min, the reaction was terminated with the BIOMOL RED^TM reagent. The amount of […] produced was estimated by measuring the absorbance at 620 nm. The non-enzymatic hydrolysis of the IR5 substrate was corrected by measuring the increase in absorbance at 620 nm obtained in the absence of PTP1β enzyme.

[3] = test system: advanced glycation end products (AGEs); assay: AGEs inhibitory activity, bovine serum albumin-methylglyoxal assay (fluorescence); type: biochemical; conditions: for IC50 AGEs: - is no activity
Procedure: The modified procedure of Lee et al. was followed. Bovine serum albumin (10 mg/mL) was incubated with 5 mM methylglyoxal in sodium phosphate buffer (100 mM; pH 7.4). […] All of the reagents and samples were […] by filtration through 0.2 μm membrane filters and the mixture was incubated at 37 °C for 7 days. The fluorescence intensity was measured at an excitation wavelength of 330 nm and an emission wavelength of 410 nm with a LS50B fluorescence spectrometer Perkin-Elmer Ltd., (Buckinghamshire, FLS, UK). Aminoguanidine was also tested as a known inhibitor.

α-glucosidase = molecular target: α-glucosidase; parameters: method as in ref 15 (Chen et al.); conditions: compounds isolated from aerial parts of Gynura divaricate; ref 15 (Chen et al.); read-out: inhibitory effects against α-glucosidase; cited from earlier work
[4] = test system: rat lens aldose reductase; conditions: compounds from X. strumarium; cited from earlier work
[5] = test system: recombinant aldose reductase; conditions: compounds from X. strumarium; cited from earlier work
[6] = ABTS^+ radical scavenging activity assay; conditions: for IC50 / IC50 ABTS^+ radical scavenging: isolated compounds
Procedure: The method described by Li et al. was used with slight modifications. ABTS^+ diammonium salt (2 mM) and potassium persulfate (3.5 mM) were mixed, diluted in distilled water and kept in the dark at room temperature for 24 h before use. After addition of ABTS^+ solution to 10 µL of antioxidant, measurements were recorded at 10 min post reaction. The percentage inhibition of absorbance at 750 nm was calculated and plotted as a function of concentration of antioxidants. Trolox was used as positive control.

[7] = Table 2, crude extract and fractions, - is no activity
[8] = isolated compounds, - is no activity

Structure (SMILES)	Inhibition (%) α-glucosidase ([1]; 50 μg/mL, - is no activity) [%]	inhibition at 10 µg/mL [2] [%]	IC50 [2] [µM]	Inhibition (%) AGEs ([3]; 100 μg/mL) [%]	further results
O=C(O)C1OC(Oc2c(-c3ccc(O)c(O)c3)oc3cc(O)cc(O)c3c2=O)C(O)C(O)C1O (stereo not shown) [compound 9, quercetin-3-O-glucuronide]	15.40	10.7	> 20.9	23.96	
O=C(CCO)c1ccc(O)cc1 [compound 2, 3-hydroxy-1-(4-hydroxyphenyl) propan-1-one]	8.60	5.88	> 60.2	8.50	
O=C(/C=C/c1ccc(O)c(O)c1)O[C@H]1[C@H](O)C[C@](O)(C(=O)O)C[C@H]1OC(=O)/C=C/c1ccc(O)c(O)c1 [3,4-di-O-CQA]					IC50 (α-glucosidase): 187 µM
OC[C@H]1O[C@H](OC[C@H]2O[C@H](O[C@]3(CO)O[C@H](CO)[C@@H](O)[C@@H]3O)[C@H](O)[C@@H](O)[C@@H]2O)[C@H](O)[C@@H](O)[C@H]1O [compound 14, raffinose]	5.82	< 0	> 19.8	14.99	
O=C(/C=C/c1ccc(O)c(O)c1)O[C@@H]1C[C@](OC(=O)/C=C/c2ccc(O)c(O)c2)(C(=O)O)C[C@@H](OC(=O)/C=C/c2ccc(O)c(O)c2)[C@H]1O [compound 13, 1,3,5-tri-O-caffeoylquinic acid]	22.05	39.2	> 14.7	40.22	rat lens aldose reductase inhibitory activity [4]: strong; recombinant aldose reductase inhibitory activity [5]: strong
COc1c(O)cc2oc(-c3ccc(O)c(O)c3)c(OC3OC(C(=O)O)C(O)C(O)C3O)c(=O)c2c1O (stereo not shown) [compound 8, patuletin-3-glucuronide]	6.11	< 0	> 19.7	6.11	
C[C@H]1O[C@H](O[C@H]2[C@H](O)[C@@H](O)[C@@H](O[C@H]3[C@H](O)[C@@H](O)C(O)O[C@@H]3CO)O[C@@H]2CO)[C@H](O)[C@@H](O)[C@@H]1N[C@H]1C=C(CO)[C@@H](O)[C@H](O)[C@H]1O (stereo partly shown) [Acarbose, reference compound]	16.98				Inhibition (%) α-glucosidase ([1]; 250 μg/mL): 41.06%; Inhibition (%) α-glucosidase ([1]; 500 μg/mL): 60.29%; Inhibition (%) α-glucosidase ([1]; 1000 μg/mL): 106.14%; IC50 α-glucosidase [1, 7]: 377.19 ± 38.17 µg/mL (≈ 584 µM); IC50 ([1]; isolated compounds): 585 µM; IC50 α-glucosidase [1, 8]: 377.19 ± 37.8 µg/mL (≈ 584 µM)
O=C(O)c1ccc(O)c(O)c1 [compound 1, protocatechuic acid]	17.45	28.6	> 64.9	9.49	Inhibition (%) ABTS^+ ([6]; 1.66 μg/mL): 25.17%; Inhibition (%) ABTS^+ ([6]; 8.33 μg/mL): 68.72%; Inhibition (%) ABTS^+ ([6]; 16.66 μg/mL): 97.22%; IC50 [6]: 32.9 µM; IC50 ABTS^+ radical scavenging ([6]; - is no activity): 4.94 ± 0.38 µg/mL (≈ 32.1 µM)
Cc1ccc(C(=O)Nc2ccc(S(=O)(=O)O)c3cc(S(=O)(=O)O)cc(S(=O)(=O)O)c23)cc1NC(=O)c1cccc(NC(=O)Nc2cccc(C(=O)Nc3cc(C(=O)Nc4ccc(S(=O)(=O)O)c5cc(S(=O)(=O)O)cc(S(=O)(=O)O)c45)ccc3C)c2)c1 [Suramin, reference compound]					inhibition at 1.43 µg/mL ([2]; 1.43 μg/mL): 10.4%; inhibition at 3.57 µg/mL ([2]; 3.57 μg/mL): 26.4%; inhibition at 7.15 µg/mL ([2]; 7.15 μg/mL): 52.2%; inhibition at 14.29 µg/mL ([2]; read-out: Inhibition (%) PTP1β): 83.6%
O=C(/C=C/c1ccc(O)c(O)c1)O[C@@H]1C[C@@](OC(=O)/C=C/c2ccc(O)c(O)c2)(C(=O)O)C[C@@H](O)[C@@H]1O [compound 12, 1,3-di-O-caffeoylquinic acid]	38.37	22.3	> 19.4	40.19	rat lens aldose reductase inhibitory activity [4]: strong; recombinant aldose reductase inhibitory activity [5]: strong
Cc1c(C)c2c(c(C)c1O)CCC(C)(C(=O)O)O2 (stereo not shown) [Trolox, reference compound]					Inhibition (%) ABTS^+ ([6]; 1.66 μg/mL): 17.27%; Inhibition (%) ABTS^+ ([6]; 8.33 μg/mL): 54.14%; Inhibition (%) ABTS^+ ([6]; 16.66 μg/mL): 95.06%; IC50 ABTS^+ [6, 7]: 7.51 ± 0.58 µg/mL (≈ 30 µM); IC50 [6]: 29.7 µM; IC50 ABTS^+ radical scavenging ([6]; - is no activity): 7.43 ± 0.71 µg/mL (≈ 29.7 µM)
Nc1ccn([C@@H]2O[C@H](CO)[C@@H](O)[C@H]2O)c(=O)n1 [compound 3, cytidine]	4.70	< 0	> 41.1	33.16	
O=C(/C=C/c1ccc(O)c(O)c1)O[C@@H]1C[C@](OC(=O)/C=C/c2ccc(O)c(O)c2)(C(=O)O)C[C@@H](O)[C@H]1O [compound 11, 1,5-di-O-caffeoylquinic acid]	46.20	10.6	> 19.4	25.04	rat lens aldose reductase inhibitory activity [4]: strong; recombinant aldose reductase inhibitory activity [5]: strong
O=C(/C=C/c1ccc(O)c(O)c1)O[C@@H]1C[C@](O)(C(=O)O)C[C@@H](OC(=O)/C=C/c2ccc(O)c(O)c2)[C@H]1O [compound 10, 3,5-di-O-caffeoylquinic acid]	52.85	18.4	> 19.4	42.91	Inhibition (%) α-glucosidase ([1]; 5 μg/mL): 9.34%; Inhibition (%) α-glucosidase ([1]; 25 μg/mL): 33.72%; Inhibition (%) α-glucosidase ([1]; 100 μg/mL): 99.44%; IC50 ([1]; isolated compounds): 88.1 µM; IC50 α-glucosidase [1, 8]: 45.48 ± 4.52 µg/mL (≈ 88.1 µM); rat lens aldose reductase inhibitory activity [4]: strong; recombinant aldose reductase inhibitory activity [5]: strong
N=C(N)NN [Aminoguanidine, reference compound]				37.84	Inhibition (%) AGEs ([3]; 50 μg/mL): 27.97%; Inhibition (%) AGEs ([3]; 200 μg/mL): 61.01%; Inhibition (%) AGEs ([3]; 400 μg/mL): 98.17%; IC50 AGEs ([3]; Table 2, crude extract and fractions): 166.22 ± 16.29 µg/mL (≈ 2240 µM); IC50 ([3]; isolated compounds): 1.41 mM; IC50 AGEs ([3]; isolated compounds): 155.88 ± 15.45 µg/mL (≈ 2100 µM)
O=C(/C=C/c1ccc(O)c(O)c1)O[C@@H]1C[C@](O)(C(=O)O)C[C@@H](O)[C@H]1O [compound 5, chlorogenic acid]	6.60			7.47	

— PMC6273932, “Xanthium strumarium as an Inhibitor of α-Glucosidase, Protein Tyrosine Phosphatase 1β, Protein Glycation and ABTS^+ for Diabetic and Its Complication” (Molecules, 2016)
